We go through two compounds from patent US11261449B2, “Anti-cancer RNA aptamers” (CITY OF HOPE, priority 2015, dated 2022).

One series deals with pancreatic cancer. To be noted: single agent, improved from 16; cited from earlier work.
Series [1] can be described thus: Cytotoxicity compared with gemcitabine (hemoglobin, WBC, neutrophil, platelet counts). It counts as in vivo. To be noted: engrafted mice. The method, then:
FIG. 5A-5F. In vivo experiments. (FIG. 5A) The conjugates of P19 and P1 was injected via tail vein injection in Panc-1 engrafted mice. The conjugates were injected day 1, 3 and 5 for 3 or 4 weeks. Student t-test (unpaired, two-tailed) was used for statistical analysis. *t-test: […] (FIG. 5B) The photon was counter by I.V.I.S and signal changes were calculated in traceable xenoengrafted mice. (FIG. 5C) The representative images of the spectrum of IVIS 200 of each group. (FIG. 5D) Comparison of anti-tumor effect of C/EBPα-saRNA with gemcitabine in Panc-1 engrafted mice by tail vein injection. Tumor size was measured. *t-test: […] (FIG. 5E) The tumor growth inhibition of gemcitabine-resistant ASPC-1 engrafted mice by tail vein injection. Signal changes were calculated. Metastasis to ascites was measured. *t-test: […] (FIG. 5F) Comparison of cytotoxicity with gemcitabine. Hemoglobin, WBC, neutrophil and platelet were counted.

In a further series the test system is Panc-1 engrafted mice. Briefly: Anti-tumor effects in Panc-1 (PANC-Luc) engrafted NOD/SCID mice. It counts as in vivo. To be noted: P19 conjugates 1 nmol tail vein; gemcitabine 3 mg I.P.; listed as Gemcitabine. The method, then: To establish the traceable tumor animal models, subcutaneous implantations were performed by injecting 25 μl of a monocellular suspension containing 10^6 Panc-1 cell with luciferase expression (PANC-Luc) cells and a 25p growth factor reduced matrigel matrix (BD Biosciences, USA) under the dorsal skin of 6-week-old female NOD/SCID mice (BioLasco Co., Taiwan). The firefly luciferase fragment was inserted into the pcDNA-3.1(+) backbone encoding ampicillin resistance for selection in bacteria and neo gene for selection in mammalian cells. The recombinant constructs for stable cell line were purified using plasmid midi kit (QIAGEN, USA). PANC-1 cells were transfected with recombinant constructs for 24 h. The following day, culture medium was replaced with standard medium containing 1.2 mg/mL G418 (Merck, Germany) for stable clone selection. […] Luciferase expression was assessed using the Luciferase Assay System. […] Tumor growth was monitored by evaluating bioluminescence using the spectrum of IVIS 200 before first injection and one week after last injection. […] The mice were imaged in the spectrum of IVIS 200 and bioluminescent signals were analyzed using Living Image Software (Caliper Life Sciences, Alameda, Calif.). Tumor size was measured by ruler and calculated by the formula 0.52*length*width*width

The test system of the next series is tumor burden. As to conditions: intravenous injection; cited from earlier work.
The subject of the next series is HepG2 cells. To be noted: HepG2, Reebye et al.; cited from earlier work.

`Nc1ccn([C@@H]2O[C@H](CO)[C@@H](O)C2(F)F)c(=O)n1` [gemcitabine, 4-amino-1-(2-deoxy-2,2-difluoro-β-D-erythro-pentofuranosyl)pyrimidin-2(1H)-on]: the 1-year survival rate with pancreatic cancer is 19%. Further, the “cytotoxicity (hemoglobin, WBC, neutrophil, platelet)” value was “cytotoxicity such as reduction of hemoglobin and neutrophils” in series [1]; “cytotoxicity on RBCs and neutrophils” in series [1] (listed as Gemcitabine). Further, in the series on Panc-1 engrafted mice, the “anti-tumor effects compared with PBS group” value is reported as “failed to reduce tumor growth”.

As for “C/EBPα-saRNA: saRNA targeting CCAAT/enhancer-binding protein-α; sense and antisense strands AW1, SEQ ID NO:22/23 (sense CGGUCAUUGUCACUGGUCAUU; antisense UGACCAGUGACAAUGACCGUU; listed as RNA, chemistry not fully specified)”, the tumor burden result in the series with tumor burden is given as “decreased tumor burden”. The cell proliferation result in the series on HepG2 cells is “decreases cell proliferation in HepG2 cells”.
